Experimental data published in patent US20050112573A1, “Method of detecting toxic substance” (priority 2001, published 2005).

Test system: yeast genes (level of expressed mRNA)
Assay: DNA chip analysis of expressed mRNA of yeast genes after 2 h culture with a toxic chemical substance
Type: cell-based, Saccharomyces cerevisiae S288C
Description: Yeast (Saccharomyces cerevtisiae S288C (α SUC2mal mel gap2 CUP1)) were cultured at 25° C. on YPD medium (yeast extract 1%, polypepton 2%, glucose 2%). One of toxic chemical substances was added to the cell at logarithmic growth phase, and the cell was further cultured for two hours. Cell was cultured without any chemical substance in the same condition, and was used as control. Concentrations of the chemical substances were defined to inhibit the growth of the yeast but not lead to death.
After the completion of cultivation, the culture was centrifuged to collect the cells. To the cells, sodium acetate buffer (50 mM sodium acetate, 10 mM EDTA, 1% SDS) was added, and the mixture was shaken at 65° C. for five minutes, followed by returning to room temperature, and obtaining the supernatant, which procedure was repeated two times. To the supernatant, ½ amount of a solution of phenol/chloroform was added, and the mixture was centrifuged to give a supernatant, which was added with an equal amount of chloroform, and the mixture was centrifuged to give a supernatant. To the supernatant, an equal amount of isopropanol containing 0.3 M sodium acetate was added, and the mixture was allowed to stand at room temperature for 30 minutes, after which the mixture was centrifuged to give a sediment of the whole RNAs. Seventy % ethanol was added to the sediment, and the mixture was again centrifuged to give a sediment, which was then dried and dissolved in water. mRNA was isolated from the whole RNAs as followings. In view of the fact that a poly A chain is attached to the 3′ terminus of mRNA, a polynucleotide having a poly T structure which was immobilized on the surface of latex beads was used to trap the mRNA, and then the mRNA was washed and eluted with spine column (Oligotex-dT30<Super>mRNA Purification Kit, Takara). Reverse transcription of the mRNA was conducted with a reverse transcriptase (Super Script II Reverse Transcriptase; catalogue No. 18064-014, GibcoBRL) using fluorescence-labeled nucleotides to give cDNAs that were introduced with Cy3-dUTP or Cy5-dUTP during the reverse transcription.
The labeled cDNAs were dissolved in TE buffer (10 mM Tris-HCl/1 mM EDTA, pH8.0), and the solution was dropped on the DNA chip containing the whole genes of yeast (DNA Chip Research Inc. Japan) so that the cDNAs were hybridized on the DNA chip at 65° C. for over 12 hours. The fluoresces intensity of the DNA chip was read with a scanner, and the ratio relative to the fluorescence intensity resulting from the absence of chemical substance was estimated as the following, which is shown in Tables 1 to 9: [formula]
In the Tables, “Intensity” indicated in the rightmost column is a value of the level of expressed mRNA of each gene in control cells as divided by the average level of the expressions of the whole genes.

SMILES: CCCCCCCCCCCCOS(=O)(=O)[O-].[Na+] [(18), sodium lauryl sulfate]
- level of expressed mRNA in the presence of chemical substance/in its absence (gene YAL012W): 0.8
- The level of expressed mRNA in the presence of chemical substance/absence: YAL014C (gene YAL014C): 1.1
- The level of expressed mRNA in the presence of chemical substance/absence: YAL017W (gene YAL017W): 1.2
- The level of expressed mRNA in the presence of chemical substance/absence: YAL018C (gene YAL018C): 0.9
- level of expressed mRNA in the presence of chemical substance/in its absence (gene YAL038W): 1.0
- level of expressed mRNA in the presence of chemical substance/in its absence (gene YAL044C): 1.8
- The level of expressed mRNA in the presence of chemical substance/absence: YAL049C (gene YAL049C): 1.8
- level of expressed mRNA in the presence of chemical substance/in its absence (gene YAL054C): 1.4
- The level of expressed mRNA in the presence of chemical substance/absence: YAR047C (gene YAR047C): 1.0
- The level of expressed mRNA in the presence of chemical substance/absence: YAR064W (gene YAR064W): 0.9
- level of expressed mRNA in the presence of chemical substance/in its absence (gene YAR071W): 1.6
- level of expressed mRNA in the presence of chemical substance/in its absence (gene YBL001C): 1.8
- The level of expressed mRNA in the presence of chemical substance/absence: YBL044W (gene YBL044W): 0.8
- The level of expressed mRNA in the presence of chemical substance/absence: YBL100C (gene YBL100C): 0.8
- The level of expressed mRNA in the presence of chemical substance/absence: YBR012C (gene YBR012C): 1.2
- The level of expressed mRNA in the presence of chemical substance/absence: YBR013C (gene YBR013C): 1.1
- level of expressed mRNA in the presence of chemical substance/in its absence (gene YBR014C): 1.6
- level of expressed mRNA in the presence of chemical substance/in its absence (gene YBR023C): 0.9
- level of expressed mRNA in the presence of chemical substance/in its absence (gene YBR029C): 0.8
- level of expressed mRNA in the presence of chemical substance/in its absence (gene YBR035C): 1.9
- level of expressed mRNA in the presence of chemical substance/in its absence (gene YBR050C): 1.8
- The level of expressed mRNA in the presence of chemical substance/absence: YBR051W (gene YBR051W): 0.8
- The level of expressed mRNA in the presence of chemical substance/absence: YBR063C (gene YBR063C): 1.2
- The level of expressed mRNA in the presence of chemical substance/absence: YBR066C (gene YBR066C): 1.2
- level of expressed mRNA in the presence of chemical substance/in its absence (gene YBR068C): 1.3
- level of expressed mRNA in the presence of chemical substance/in its absence (gene YBR111C): 2.4
- The level of expressed mRNA in the presence of chemical substance/absence: YBR124W (gene YBR124W): 0.9
- The level of expressed mRNA in the presence of chemical substance/absence: YBR129C (gene YBR129C): 1.5
- level of expressed mRNA in the presence of chemical substance/in its absence (gene YBR145W): 2.0
- The level of expressed mRNA in the presence of chemical substance/absence: YBR162C (gene YBR162C): 1.3
- level of expressed mRNA in the presence of chemical substance/in its absence (gene YBR183W): 2.4
- level of expressed mRNA in the presence of chemical substance/in its absence (gene YBR222C): 0.9
- The level of expressed mRNA in the presence of chemical substance/absence: YBR255W (gene YBR255W): 1.0
- The level of expressed mRNA in the presence of chemical substance/absence: YBR281C (gene YBR281C): 0.8
- The level of expressed mRNA in the presence of chemical substance/absence: YBR287W (gene YBR287W): 1.9
- level of expressed mRNA in the presence of chemical substance/in its absence (gene YBR299W): 1.1
- level of expressed mRNA in the presence of chemical substance/in its absence (gene YCL009C): 0.8
- The level of expressed mRNA in the presence of chemical substance/absence: YCL044C (gene YCL044C): 0.6
- The level of expressed mRNA in the presence of chemical substance/absence: YCL056C (gene YCL056C): 1.5
- level of expressed mRNA in the presence of chemical substance/in its absence (gene YCL064C): 0.3
- The level of expressed mRNA in the presence of chemical substance/absence: YCR007C (gene YCR007C): 2.1
- level of expressed mRNA in the presence of chemical substance/in its absence (gene YCR037C): 0.9
- level of expressed mRNA in the presence of chemical substance/in its absence (gene YCR048W): 0.8
- level of expressed mRNA in the presence of chemical substance/in its absence (gene YCR098C): 1.6
- level of expressed mRNA in the presence of chemical substance/in its absence (gene YDL022W): 1.4
- The level of expressed mRNA in the presence of chemical substance/absence: YDL046W (gene YDL046W): 1.6
- The level of expressed mRNA in the presence of chemical substance/absence: YDL089W (gene YDL089W): 1.1
- The level of expressed mRNA in the presence of chemical substance/absence: YDL173W (gene YDL173W): 1.8
- The level of expressed mRNA in the presence of chemical substance/absence: YDL193W (gene YDL193W): 1.4
- The level of expressed mRNA in the presence of chemical substance/absence: YDL233W (gene YDL233W): 1.4
- level of expressed mRNA in the presence of chemical substance/in its absence (gene YDR009W): 1.0
- level of expressed mRNA in the presence of chemical substance/in its absence (gene YDR019C): 1.6
- The level of expressed mRNA in the presence of chemical substance/absence: YDR071C (gene YDR071C): 1.6
- The level of expressed mRNA in the presence of chemical substance/absence: YDR078C (gene YDR078C): 1.2
- The level of expressed mRNA in the presence of chemical substance/absence: YDR090C (gene YDR090C): 1.1
- The level of expressed mRNA in the presence of chemical substance/absence: YDR109C (gene YDR109C): 0.9
- The level of expressed mRNA in the presence of chemical substance/absence: YDR128W (gene YDR128W): 0.9
